Laboratory results published in ChEMBL document CHEMBL4715869, “N-(Pyrimidin-2-yl)-1,2,3,4-tetrahydroisoquinolin-6-amine Derivatives as Selective Janus Kinase 2 Inhibitors for the Treatment of Myeloproliferative Neoplasms” (J Med Chem, 2020).
Calls of active or inactive are those of the source. The rule behind the calls is not given here.

Assays:
[1] = molecular target: T1, Tyrosine-protein kinase JAK3 (Homo sapiens, UniProt P52333); assay: Inhibition of recombinant human JAK3 (781 to end residues) using GGEEEEYFELVKKKK as substrate measured after 40 mins in presence of [gamm33P]ATP by scintillation counting method
T1 sequence (P52333 whole entry): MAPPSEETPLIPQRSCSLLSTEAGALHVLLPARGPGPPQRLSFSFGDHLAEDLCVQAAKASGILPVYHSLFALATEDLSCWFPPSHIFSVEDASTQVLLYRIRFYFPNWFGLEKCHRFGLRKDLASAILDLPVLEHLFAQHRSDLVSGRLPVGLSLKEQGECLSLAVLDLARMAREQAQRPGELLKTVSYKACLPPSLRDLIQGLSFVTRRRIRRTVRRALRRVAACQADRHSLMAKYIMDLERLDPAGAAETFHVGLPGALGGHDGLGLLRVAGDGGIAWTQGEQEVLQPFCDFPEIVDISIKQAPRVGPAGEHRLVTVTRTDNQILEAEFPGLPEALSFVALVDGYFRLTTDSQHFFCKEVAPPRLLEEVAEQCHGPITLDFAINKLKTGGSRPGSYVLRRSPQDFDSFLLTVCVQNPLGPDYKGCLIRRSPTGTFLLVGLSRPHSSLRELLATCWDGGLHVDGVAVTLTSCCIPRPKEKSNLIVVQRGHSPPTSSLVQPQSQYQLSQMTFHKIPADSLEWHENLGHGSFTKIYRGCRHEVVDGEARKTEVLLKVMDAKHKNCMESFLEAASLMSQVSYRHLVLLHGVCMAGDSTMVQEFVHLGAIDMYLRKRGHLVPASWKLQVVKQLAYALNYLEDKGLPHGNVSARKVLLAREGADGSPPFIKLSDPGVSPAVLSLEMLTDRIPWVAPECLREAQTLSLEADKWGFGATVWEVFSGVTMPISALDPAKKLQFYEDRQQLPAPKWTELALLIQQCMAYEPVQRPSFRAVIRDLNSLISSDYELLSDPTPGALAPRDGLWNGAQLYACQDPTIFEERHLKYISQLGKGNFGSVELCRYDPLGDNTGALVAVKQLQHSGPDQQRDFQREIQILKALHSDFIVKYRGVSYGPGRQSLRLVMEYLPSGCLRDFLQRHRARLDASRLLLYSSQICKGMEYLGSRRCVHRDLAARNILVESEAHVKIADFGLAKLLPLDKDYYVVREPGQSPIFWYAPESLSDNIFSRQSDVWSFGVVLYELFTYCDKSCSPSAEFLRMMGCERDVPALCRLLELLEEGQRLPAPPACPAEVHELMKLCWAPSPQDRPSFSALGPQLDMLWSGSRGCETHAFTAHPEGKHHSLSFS

[2] = Selectivity index, ratio of IC50 for inhibition of recombinant human TYK2 (875 to end residues) to IC50 for inhibition of recombinant human JAK2 (808 to end residues)
L02 = assay: Cytotoxicity against human L02 cells assessed as reduction in cell viability incubated for 72 hrs by MTT assay; format: cell-based; conditions: L02, 72 h
[3] = Elimination half life in male Sprague-Dawley rat at 5 mg/kg, po administered via gavage measured upto 24 hrs by LC/MS/MS analysis; format: ADME, organism-based; conditions: in vivo, read-out: beta t1/2 (converted)
[4] = AUC (0 to t) in Sprague-Dawley rat at 5 mg/kg, po administered via gavage measured upto 24 hrs by LC/MS/MS analysis; format: ADME, organism-based; design: route oral, dose 5 mg/kg, time <=24; conditions: in vivo
SET-2 [5] = assay: Induction of apoptosis in human SET-2 cells assessed as late apoptotic cells at 0.2 uM incubated for 24 hrs by Annexin V/PI staining based flow cytometric analysis (reference value: 1.52%); format: functional
SET-2 [6] = assay: Induction of apoptosis in human SET-2 cells assessed as live cells at 0.2 uM incubated for 24 hrs by Annexin V/PI staining based flow cytometric analysis (reference value: 96.23 %); format: functional
SET-2 [7] = assay: Induction of apoptosis in human SET-2 cells assessed as early apoptotic cells at 0.2 uM incubated for 24 hrs by Annexin V/PI staining based flow cytometric analysis (reference value: 1.47 %); format: functional
SET-2 [8] = assay: Induction of apoptosis in human SET-2 cells assessed as early apoptotic cells at 1.6 uM incubated for 24 hrs by Annexin V/PI staining based flow cytometric analysis (reference value: 1.47 %); format: functional
[9] = tested on: Tyrosine-protein kinase JAK2 (Homo sapiens), O60674 [V617F]; assay: Inhibition of JAK2 V617F mutant in human SET-2 cells assessed as reduction in STAT5 phosphorylation after 2 hrs by Western blot analysis; format: cell-based; conditions: SET2, dose 1-1000 nM
Chain of Tyrosine-protein kinase JAK2 (Homo sapiens), O60674 [V617F] (O60674 whole entry V617F): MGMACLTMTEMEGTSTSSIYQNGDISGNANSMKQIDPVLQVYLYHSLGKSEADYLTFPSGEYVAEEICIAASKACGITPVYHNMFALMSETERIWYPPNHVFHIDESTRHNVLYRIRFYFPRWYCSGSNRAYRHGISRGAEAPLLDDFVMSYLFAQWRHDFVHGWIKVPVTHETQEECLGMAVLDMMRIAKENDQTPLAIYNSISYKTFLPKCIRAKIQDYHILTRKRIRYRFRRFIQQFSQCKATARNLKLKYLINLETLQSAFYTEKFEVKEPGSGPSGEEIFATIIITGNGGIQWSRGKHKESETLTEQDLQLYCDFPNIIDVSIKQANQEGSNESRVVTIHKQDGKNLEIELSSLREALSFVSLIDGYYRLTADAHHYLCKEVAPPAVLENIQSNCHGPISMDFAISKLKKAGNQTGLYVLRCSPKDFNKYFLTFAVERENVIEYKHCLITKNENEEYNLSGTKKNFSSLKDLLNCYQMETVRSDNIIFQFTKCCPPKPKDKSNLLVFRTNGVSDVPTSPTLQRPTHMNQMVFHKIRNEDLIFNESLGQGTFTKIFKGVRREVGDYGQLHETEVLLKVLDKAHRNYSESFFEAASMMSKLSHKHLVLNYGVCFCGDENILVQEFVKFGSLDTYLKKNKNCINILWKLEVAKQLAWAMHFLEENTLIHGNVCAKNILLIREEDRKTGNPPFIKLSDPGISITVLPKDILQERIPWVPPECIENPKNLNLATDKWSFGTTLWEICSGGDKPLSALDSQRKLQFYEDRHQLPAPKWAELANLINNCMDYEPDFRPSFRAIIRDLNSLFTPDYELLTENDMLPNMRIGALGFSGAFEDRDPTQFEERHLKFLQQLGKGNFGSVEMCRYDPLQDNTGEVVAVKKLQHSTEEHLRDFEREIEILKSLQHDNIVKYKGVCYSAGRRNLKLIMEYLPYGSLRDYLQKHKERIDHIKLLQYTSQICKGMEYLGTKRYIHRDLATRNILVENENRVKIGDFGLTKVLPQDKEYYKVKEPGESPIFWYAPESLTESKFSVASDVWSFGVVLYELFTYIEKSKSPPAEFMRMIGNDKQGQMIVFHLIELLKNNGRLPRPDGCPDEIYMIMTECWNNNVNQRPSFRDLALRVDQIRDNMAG

[10] = tested on: Tyrosine-protein kinase JAK2 (Mus musculus), Q62120 [V617F]; assay: Inhibition of JAK2 V617F mutant in mouse BAF3 cells assessed as decrease in STAT5 phosphorylation at 50 nM after 2 hrs by Western blot analysis; format: cell-based
Chain of Tyrosine-protein kinase JAK2 (Mus musculus), Q62120 [V617F] (Q62120 as listed by the source): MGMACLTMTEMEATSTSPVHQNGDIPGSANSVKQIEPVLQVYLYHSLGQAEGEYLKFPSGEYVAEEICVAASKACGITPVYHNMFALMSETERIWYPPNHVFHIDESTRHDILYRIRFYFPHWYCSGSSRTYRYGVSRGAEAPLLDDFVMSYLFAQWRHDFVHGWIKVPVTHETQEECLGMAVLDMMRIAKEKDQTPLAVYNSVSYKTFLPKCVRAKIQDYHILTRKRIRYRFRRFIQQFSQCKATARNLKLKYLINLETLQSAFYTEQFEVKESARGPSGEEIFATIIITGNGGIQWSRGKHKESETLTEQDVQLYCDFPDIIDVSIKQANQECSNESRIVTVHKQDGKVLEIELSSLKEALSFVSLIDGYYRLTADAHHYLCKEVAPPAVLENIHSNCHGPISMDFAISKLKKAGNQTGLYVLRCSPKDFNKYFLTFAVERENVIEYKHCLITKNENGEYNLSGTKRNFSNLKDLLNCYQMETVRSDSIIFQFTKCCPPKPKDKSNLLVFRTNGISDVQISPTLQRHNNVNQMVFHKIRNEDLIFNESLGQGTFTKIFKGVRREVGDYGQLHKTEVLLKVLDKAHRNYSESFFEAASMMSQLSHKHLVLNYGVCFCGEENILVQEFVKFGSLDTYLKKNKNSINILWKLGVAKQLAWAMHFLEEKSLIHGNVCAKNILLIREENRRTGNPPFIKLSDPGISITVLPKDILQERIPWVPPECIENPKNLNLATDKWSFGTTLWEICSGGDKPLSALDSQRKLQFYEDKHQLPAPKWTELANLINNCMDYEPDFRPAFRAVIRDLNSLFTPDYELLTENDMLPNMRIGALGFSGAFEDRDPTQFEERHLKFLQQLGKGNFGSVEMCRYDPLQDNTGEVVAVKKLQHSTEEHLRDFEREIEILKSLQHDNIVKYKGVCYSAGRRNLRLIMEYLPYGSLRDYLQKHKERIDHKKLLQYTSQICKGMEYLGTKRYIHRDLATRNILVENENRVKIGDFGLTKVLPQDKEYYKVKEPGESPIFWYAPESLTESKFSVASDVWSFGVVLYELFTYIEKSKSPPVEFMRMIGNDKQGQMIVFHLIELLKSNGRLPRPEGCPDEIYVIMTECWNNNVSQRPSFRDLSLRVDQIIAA

[11] = molecular target: T2, Signal transducer and transcription activator 6 (Mus musculus) (UniProt P52633); assay: Inhibition of STAT6 phosphorylation in mouse BAF3 cells at 1000 nM after 2 hrs by Western blot analysis; format: cell-based
T2 sequence (whole entry): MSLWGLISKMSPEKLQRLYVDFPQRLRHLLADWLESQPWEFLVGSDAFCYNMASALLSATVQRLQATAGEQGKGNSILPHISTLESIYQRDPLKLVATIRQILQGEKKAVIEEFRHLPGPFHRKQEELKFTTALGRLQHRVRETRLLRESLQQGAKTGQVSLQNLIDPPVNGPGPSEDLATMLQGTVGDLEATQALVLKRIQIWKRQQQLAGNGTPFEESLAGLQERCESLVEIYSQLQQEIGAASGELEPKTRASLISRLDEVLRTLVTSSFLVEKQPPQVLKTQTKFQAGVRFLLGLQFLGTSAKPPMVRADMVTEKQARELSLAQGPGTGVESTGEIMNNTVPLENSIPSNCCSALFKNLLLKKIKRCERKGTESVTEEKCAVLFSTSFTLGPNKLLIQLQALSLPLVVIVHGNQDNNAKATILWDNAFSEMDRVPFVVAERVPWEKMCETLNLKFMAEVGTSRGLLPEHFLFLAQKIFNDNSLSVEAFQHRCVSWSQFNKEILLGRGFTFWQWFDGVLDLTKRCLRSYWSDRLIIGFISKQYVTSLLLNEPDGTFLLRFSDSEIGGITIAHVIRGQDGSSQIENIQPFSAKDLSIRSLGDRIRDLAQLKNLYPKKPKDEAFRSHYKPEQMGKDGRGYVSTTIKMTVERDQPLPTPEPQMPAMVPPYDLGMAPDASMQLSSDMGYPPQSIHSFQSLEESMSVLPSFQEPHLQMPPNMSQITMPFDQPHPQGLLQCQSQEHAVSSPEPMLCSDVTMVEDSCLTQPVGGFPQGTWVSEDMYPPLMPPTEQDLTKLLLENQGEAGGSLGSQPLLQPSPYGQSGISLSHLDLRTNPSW

BaF3 = assay: Antitumor activity against mouse BAF3 cells harboring JAK2 V617F mutant implanted in Balb/c mouse assessed as decrease in liver weight at 60 mg/kg, po qd administered starting from day 4 to 20 and measured on day 25 relative to control; format: functional; design: scale not given: the % may be the effect or the level left; conditions: time 21 day

Cc1cnc(Nc2ccc3c(c2)CCN(C(=O)/C=C/CN(C)C)C3)nc1-c1cnn(C(C)C)c1
IC50 [1]: 0.094 µM | Ratio IC50 [2]: 25 | IC50 (L02): 7.22 µM | half-life [3]: 1.8 h | AUC(0-t) at 24 h [4]: 254 ng·h/mL | Activity (SET-2 [5]): 5.66% | Activity (SET-2 [6]): 90.35% | Activity (SET-2 [7]): 3.36% | Activity (SET-2 [8]): 27.3% | inhibition [9]: Dose-dependent effect | inhibition [10]: Active | inhibition [11]: inactive | Activity (BaF3): 66.3%
